The test system of this test is human JAK1. Description: In vitro JAK kinase assay (HTRF, phosphorylation of biotinylated peptide), JAK1. The class given is biochemical. Conditions: ratio of JAK2 IC50 to JAK1 IC50, 1 mM ATP. As for the experimental part: Compounds herein were tested for inhibitory activity of JAK targets according to the following in vitro assay described in Park et al., Analytical Biochemistry 1999, 269, 94-104. The catalytic domains of human JAK1 (a.a. 837-1142), JAK2 (a.a. 828-1132) and JAK3 (a.a. 781-1124) were expressed using baculovirus in insect cells and purified. The catalytic activity of JAK1, JAK2 or JAK3 was assayed by measuring the phosphorylation of a biotinylated peptide. The phosphorylated peptide was detected by homogenous time resolved fluorescence (HTRF). IC50s of compounds were measured for each kinase in the 40 μL reactions that contain the enzyme, ATP and 500 nM peptide in 50 mM Tris (pH 7.8) buffer with 100 mM NaCl, 5 mM DTT, and 0.1 mg/mL (0.01%) BSA. For the 1 mM IC50 measurements, ATP concentration in the reactions was 1 mM. Reactions were carried out at room temperature for 1 hour and then stopped with 20 μL 45 mM EDTA, 300 nM SA-APC, 6 nM Eu-Py20 in assay buffer (Perkin Elmer, Boston, Mass.). Binding to the Europium labeled antibody took place for 40 minutes and HTRF signal was measured on a PHERA star plate reader (BMG, Cary, N.C.). The Example compounds were each tested in the Example A assay (see Table 1 for data for the compounds of the examples as tested by the assay of Example A at 1 mM ATP).
For orientation: In TR-FRET formats the signal depends on donor and acceptor labels being close together.

Turning to `N#CC[C@H]1CC[C@H](n2c(C3CNC3)nc3cnc4ccsc4c32)CC1` [Example 28, [trans-4-(2-Azetidin-3-yl-1H-imidazo[4,5-d]thieno[3,2-b]pyridin-1-yl)cyclohexyl]acetonitrile], the JAK2/JAK1 is >7. Next, `CN1CC(c2nc3cnc4ccsc4c3n2[C@H]2CC[C@H](CC#N)CC2)C1` [Example 29, {trans-4-[2-(1-Methylazetidin-3-yl)-1H-imidazo[4,5-d]thieno[3,2-b]pyridin-1-yl]cyclohexyl}acetonitrile]: >9; `CCNC(=O)C[C@H]1CC[C@H](n2c([C@@H](C)O)nc3cnc4ccsc4c32)CC1` [Example 31, N-Ethyl-2-(trans-4-{2-[(1R)-1-hydroxyethyl]-1H-imidazo[4,5-d]thieno[3,2-b]pyridin-1-yl}cyclohexyl)acetamide]: >10; `C[C@@H](O)c1nc2cnc3ccsc3c2n1C1CCCC(CCC#N)C1` (stereo partly drawn) [Example 32, 3-(3-{2-[(1R)-1-Hydroxyethyl]-1H-imidazo[4,5-d]thieno[3,2-b]pyridin-1-yl}cyclohexyl)propanenitrile]: >10.

Turning to `Cc1nc2cnc3ccsc3n2c1-c1ccc(CC#N)cc1` [Example 33, [4-(7-Methylimidazo[1,2-a]thieno[3,2-e]pyrazin-8-yl)phenyl]acetonitrile], the JAK2/JAK1 is reported as >7. In the case of `Cc1nc2cnc3ccsc3c2n1[C@H]1CC[C@H](CC#N)OC1` [Example 38, [(2R,5S)-5-(2-Methyl-1H-imidazo[4,5-d]thieno[3,2-b]pyridin-1-yl)tetrahydro-2H-pyran-2-yl]acetonitrile], the JAK2/JAK1 is >10. As to `CCc1nc2cnc3ccsc3c2n1[C@H]1CC[C@H](CC#N)OC1` [Example 39, [(2R,5S)-5-(2-Ethyl-1H-imidazo[4,5-d]thieno[3,2-b]pyridin-1-yl)tetrahydro-2H-pyran-2-yl]acetonitrile], the JAK2/JAK1 is >10.

Take `CC(C)c1nc2cnc3ccsc3c2n1[C@H]1CC[C@H](CC#N)OC1` [Example 42, [(2R,5S)-5-(2-Isopropyl-1H-imidazo[4,5-d]thieno[3,2-b]pyridin-1-yl)tetrahydro-2H-pyran-2-yl]acetonitrile]: the JAK2/JAK1 is reported as >10. Next, `N#CC[C@H]1CC[C@H](n2c(C3CC3)nc3cnc4ccsc4c32)CO1` [Example 43, [(2R,5S)-5-(2-Cyclopropyl-1H-imidazo[4,5-d]thieno[3,2-b]pyridin-1-yl)tetrahydro-2H-pyran-2-yl]acetonitrile]: >10. Next, `C[C@@H](O)c1nc2cnc3ccsc3c2n1[C@@H]1CC[C@@H](CC#N)OC1` [Example 44, ((2S,5R)-5-{2-[(1R)-1-Hydroxyethyl]-1H-imidazo[4,5-d]thieno[3,2-b]pyridin-1-yl}tetrahydro-2H-pyran-2-yl)acetonitrile]: >10; `C[C@H](O)c1nc2cnc3ccsc3c2n1[C@H]1CC[C@H](CC#N)OC1` [Example 45, ((2R,5S)-5-{2-[(1S)-1-Hydroxyethyl]-1H-imidazo[4,5-d]thieno[3,2-b]pyridin-1-yl}tetrahydro-2H-pyran-2-yl)acetonitrile]: >10; `CCc1nc2cnc3ccsc3c2n1[C@H]1CC[C@H](CC#N)CC1` [Example 47, [trans-4-(2-Ethyl-1H-imidazo[4,5-d]thieno[3,2-b]pyridin-1-yl)cyclohexyl]acetonitrile]: >10. Consider `Cc1nc2cnc3ccsc3c2n1[C@H]1CC[C@H](CC#N)CC1` [Example 48, [trans-4-(2-Methyl-1H-imidazo[4,5-d]thieno[3,2-b]pyridin-1-yl)cyclohexyl]acetonitrile], for which the JAK2/JAK1 is >7.

`C[C@@H](O)c1nc2cnc3ccsc3c2n1[C@H]1CC[C@@H](CC#N)C1.O=C(O)C(F)(F)F` [Example 49, ((1R,3S)-3-{2-[(1R)-1-Hydroxyethyl]-1H-imidazo[4,5-d]thieno[3,2-b]pyridin-1-yl}cyclopentyl)acetonitrile trifluoroacetate]: the JAK2/JAK1 is recorded as >10. As for `CCOC(=O)N1CCC[C@H](n2c([C@@H](C)O)nc3cnc4ccsc4c32)C1` [Example 50, Ethyl (3S)-3-{2-[(1R)-1-hydroxyethyl]-1H-imidazo[4,5-d]thieno[3,2-b]pyridin-1-yl}piperidine-1-carboxylate], the JAK2/JAK1 is reported as >10. Next, `C[C@@H](O)c1nc2cnc3ccsc3c2n1[C@H]1CCCN(C(=O)CC#N)C1.O=C(O)C(F)(F)F` [Example 51, 3-((3S)-3-{2-[(1R)-1-Hydroxyethyl]-1H-imidazo[4,5-d]thieno[3,2-b]pyridin-1-yl}piperidin-1-yl)-3-oxopropanenitrile trifluoroacetate]: >10; `C[C@@H](O)c1nc2cnc3ccsc3c2n1[C@H]1CCCN(C(=O)CCC(F)(F)F)C1` [Example 52, (1R)-1-{1-[(3S)-1-(4,4,4-Trifluorobutanoyl)piperidin-3-yl]-1H-imidazo[4,5-d]thieno[3,2-b]pyridin-2-yl}ethanol]: >10. Next, `C[C@@H](O)c1nc2cnc3ccsc3c2n1[C@H]1CCCN(C(=O)CCc2cn[nH]c2)C1` [Example 53, (1R)-1-(1-{(3S)-1-[3-(1H-Pyrazol-4-yl)propanoyl]piperidin-3-yl}-1H-imidazo[4,5-d]thieno[3,2-b]pyridin-2-yl)ethanol]: >10; `C[C@@H](O)c1nc2cnc3ccsc3c2n1[C@H]1CCCN(C(=O)CCc2cccnc2)C1` [Example 54, (1R)-1-{1-[(3S)-1-(3-Pyridin-3-ylpropanoyl)piperidin-3-yl]-1H-imidazo[4,5-d]thieno[3,2-b]pyridin-2-yl}ethanol]: >10; `CC(CC(=O)N1CCC[C@H](n2c([C@@H](C)O)nc3cnc4ccsc4c32)C1)c1ccccc1` (stereo partly drawn) [Example 55, (1R)-1-{1-[(3S)-1-(3-Phenylbutanoyl)piperidin-3-yl]-1H-imidazo[4,5-d]thieno[3,2-b]pyridin-2-yl}ethanol]: >10. For the compound `C[C@@H](O)c1nc2cnc3ccsc3c2n1[C@H]1CCCN(CCC#N)C1` [Example 56, 3-((3S)-3-{2-[(1R)-1-Hydroxyethyl]-1H-imidazo[4,5-d]thieno[3,2-b]pyridin-1-yl}piperidin-1-yl)propanenitrile], the JAK2/JAK1 was >10. Consider `C[C@@H](O)c1nc2cnc3ccsc3c2n1[C@H]1CCCN(C(=O)CCc2ccccc2)C1` [Example 57], for which the JAK2/JAK1 was >10. For `C[C@@H](O)c1nc2cnc3ccsc3c2n1[C@H]1CCCN(C(=O)CCC#N)C1` [Example 58, 4-((3S)-3-{2-[(1R)-1-Hydroxyethyl]-1H-imidazo[4,5-d]thieno[3,2-b]pyridin-1-yl}piperidin-1-yl)-4-oxobutanenitrile] the value was >10; for `C[C@@H](O)c1nc2cnc3ccsc3c2n1[C@H]1CCCN(C(=O)CCCC#N)C1` [Example 59, 5-((3S)-3-{2-[(1R)-1-Hydroxyethyl]-1H-imidazo[4,5-d]thieno[3,2-b]pyridin-1-yl}piperidin-1-yl)-5-oxopentanenitrile], >10.

As for `C[C@@H](O)c1nc2cnc3ccsc3c2n1C1CCN(CCCC(F)(F)F)CC1` [Example 60, (1R)-1-{1-[1-(4,4,4-Trifluorobutyl)piperidin-4-yl]-1H-imidazo[4,5-d]thieno[3,2-b]pyridin-2-yl}ethanol], the JAK2/JAK1 is >10. For `C[C@@H](O)c1nc2cnc3ccsc3c2n1C1CCN(CC#N)CC1.O=C(O)C(F)(F)F` [Example 61, (4-{2-[(1R)-1-Hydroxyethyl]-1H-imidazo[4,5-d]thieno[3,2-b]pyridin-1-yl}piperidin-1-yl)acetonitrile trifluoroacetate] the value was >10. For `C[C@@H](O)c1nc2cnc3ccsc3c2n1[C@H]1CCN(CCC#N)C1` [Example 62, 3-((3S)-3-{2-[(1R)-1-Hydroxyethyl]-1H-imidazo[4,5-d]thieno[3,2-b]pyridin-1-yl}pyrrolidin-1-yl)propanenitrile] the value was >10; for `C[C@@H](O)c1nc2cnc3ccsc3c2n1[C@H]1CCN(C(=O)CC#N)C1` [Example 63, 3-((3S)-3-{2-[(1R)-1-Hydroxyethyl]-1H-imidazo[4,5-d]thieno[3,2-b]pyridin-1-yl}pyrrolidin-1-yl)-3-oxopropanenitrile], >6; for `C[C@@H](O)c1nc2cnc3ccsc3c2n1[C@H]1CCN(CCCC(F)(F)F)C1` [Example 64, (1R)-1-{1-[(3S)-1-(4,4,4-Trifluorobutyl)pyrrolidin-3-yl]-1H-imidazo[4,5-d]thieno[3,2-b]pyridin-2-yl}ethanol], >10. With `C[C@@H](O)c1nc2cnc3ccsc3c2n1[C@H]1CCN(CCCC#N)C1` [Example 65, 4-((3S)-3-{2-[(1R)-1-Hydroxyethyl]-1H-imidazo[4,5-d]thieno[3,2-b]pyridin-1-yl}pyrrolidin-1-yl)butanenitrile], the JAK2/JAK1 is >10. For `C[C@@H](O)c1nc2cnc3ccsc3c2n1[C@H]1CCN(CCCCC#N)C1` [Example 66, 5-((3S)-3-{2-[(1R)-1-Hydroxyethyl]-1H-imidazo[4,5-d]thieno[3,2-b]pyridin-1-yl}pyrrolidin-1-yl)pentanenitrile] the value was >10.
